Assay results published in patent US6894075B2, “4′-demethyl-4′-O-substituted-1-deoxypodophyllotoxin derivative and geometric isomer thereof, process for the preparation thereof and anti-cancer composition comprising the same” (priority 2000, dated 2005).

Assays:
[1] = test system: A549 cell; experiment: Cytotoxicity test (SRB method) for A549 cells; type: cell-based, human; settings: A549, SRB, 48 hours incubation, Table 2
Text: (§1) Human lung carcinomas A549 and […] were used for determining cytotoxicity of the compounds of the present invention according to the Sulfrhodamine-B (SRB) method which was developed by NCI in 1989 in order to determine in vitro anticancer activity of drugs.
(§2) Cells to be used in the experiment were separated from a surface using 0.5% Trypsin-EDTA solution and suspended in a density of 5×10^4 cell/ml therein. The cell suspension was introduced into a 96-well plate in an amount of 180/well and incubated for 24 hours in a 5% CO2 incubator of 37° C. Samples were dissolved in dimethylsulfoxide and then diluted by water distilled in advance for three times just before the experiment. Forty-one (41) samples were prepared into 4 types of final concentrations, i.e., 0.1, 0.03, 0.01 and 0.003 mg per ml of the medium. The diluted sample solutions were added to the 96-well plate in the amount of 20 μl/well and incubated for 48 hours in a CO2 incubator of 37° C. At the time of adding the samples, Tz (Time zero) plate was taken. The medium was removed from the Tz plate and each of the plates after incubation were completed. Ten (10)% […] (TCA) was added in the amount of […], and allowed to stand for 1 hour at 4° C. to fix the cells on the bottom surface of the plate. After the cells were fixed, the plate was washed five to six times with water to completely remove the remaining TCA solution and then dried at room temperature to completely remove the moisture. To the fully dried plate was introduced a dye solution in the amount of […] in which 0.4% SRB was dissolved in 1% acetic acid solution. […] After the dyeing process, the plate was dried again at room temperature. 100 ml of 10 mM Tris solution was added thereto in order to dissolve the dye, and then O.D. (optical density) was determined by microplate reader at 520 nm.
(§3) ED50 values for cancer cells were calculated as follows. The amount of SRB protein was analyzed at the time when incubation started by the addition of the sample. This amount was named time zero (Tz). The O.D. value obtained from a group which was not treated by the sample was named Control group (C) and the O.D. value obtained from a group which was treated by the sample was named Test group (T).
(§4) The degree of cytotoxicity of the compounds was calculated from Tz, C and T values according to the following equation.
(§5) That is, in the case of Tz≧T, the degree was calculated by
(§6) (T−Tz)/(C−Tz)×100(%), and
(§7) • in the case of Tz<T, the degree was calculated by […].
(§8) From the values thus obtained, ED50 value which is defined as the concentration at which growth of the cancer cell is inhibited by 50% was calculated using the regression function of Excel program.

[2] = test system: SK-MEL-2 cell; experiment: Cytotoxicity test (SRB method) for SK-MEL-2 cells; type: cell-based, human; settings: SK-MEL-2, SRB, 48 hours incubation
Text: as §1, §2, §3, §4, §5, §6, §7, §8

Row | Compound | ED50(mg/mL) for A549 [1] | ED50(mg/mL) for SK-MEL-2 [2]
1 | CCCCCCCC/C=C/CCCCCCCCCC(=O)Oc1c(OC)cc(C2c3cc4c(cc3CC3COC(=O)C32)OCO4)cc1OC (stereo not drawn) [Compound 1c-26, 4′-demethyl-4′-O-(trans-11′-eicosenoyl)-1-deoxypodophyllotoxin] | 1.660 mg/mL | 1.130 mg/mL
2 | CCCCC/C=C\C/C=C\CCCCCCCCCC(=O)Oc1c(OC)cc(C2c3cc4c(cc3CC3COC(=O)C32)OCO4)cc1OC (stereo not drawn) [Compound 1c-27, 4′-demethyl-4′-O-(cis-11′,14′-eicosadienoyl)-1-deoxypodophyllotoxin] | 0.870 mg/mL | 0.347 mg/mL
3 | COc1cc(C2c3cc4c(cc3CC3COC(=O)C32)OCO4)cc(OC)c1OC(C)=O (stereo not drawn) [Compound 1c-3, 4′-demethyl-4′-O-acetyl-1-deoxypodophyllotoxin] | 0.003 mg/mL | 0.006 mg/mL
4 | CCCCCCCC/C=C\CCCCCCCC(=O)Oc1c(OC)cc(C2c3cc4c(cc3CC3COC(=O)C32)OCO4)cc1OC (stereo not drawn) [Compound 1c-16, 4′-demethyl-4′-O-(cis-9′-octadecenoyl)-1-deoxypodophyllo-toxin] | 0.179 mg/mL | 0.159 mg/mL
5 | CCCC(=O)Oc1c(OC)cc(C2c3cc4c(cc3CC3COC(=O)C32)OCO4)cc1OC (stereo not drawn) [Compound 1c-5, 4′-demethyl-4′-O-butanoyl-1-deoxypodophyllotoxin] | 0.005 mg/mL | 0.017 mg/mL
6 | CCCCC/C=C\C/C=C\C/C=C\C/C=C\CCCC(=O)Oc1c(OC)cc(C2c3cc4c(cc3CC3COC(=O)C32)OCO4)cc1OC (stereo not drawn) [Compound 1c-28, 4′-demethyl-4′-O-(cis-5′,8′,11′,14′-eicosatetraenoyl)-1-deoxypodophyllotoxin] | 0.910 mg/mL | 0.184 mg/mL
7 | CCCCCCCC/C=C/CCCCCCCC(=O)Oc1c(OC)cc(C2c3cc4c(cc3CC3COC(=O)C32)OCO4)cc1OC (stereo not drawn) [Compound 1c-17, 4′-demethyl-4′-O-(trans-9′-octadecenoyl)-1-deoxypodophyllo-toxin] | 0.367 mg/mL | 0.550 mg/mL
8 | CCCCCCCC(=O)Oc1c(OC)cc(C2c3cc4c(cc3CC3COC(=O)C32)OCO4)cc1OC (stereo not drawn) [Compound 1c-8, 4′-demethyl-4′-O-octanoyl-1-deoxypodophyllotoxin] | 0.009 mg/mL | 0.030 mg/mL
9 | CCC(=O)Oc1c(OC)cc(C2c3cc4c(cc3CC3COC(=O)C32)OCO4)cc1OC (stereo not drawn) [Compound 1c-4, 4′-demethyl-4′-O-propanoyl-1-deoxypodophyllotoxin] | 0.004 mg/mL | 0.010 mg/mL
